Measured values published in patent US20260234217A1, “USE OF BMP RECEPTOR ALK1 INHIBITORS IN OSTEOARTHRITIS THERAPIES” (The Regents of the University of California, priority 2023, published 2026).
“Also recorded” adds a separate entry of the source.

What was measured:
pSMAD2/3 = assay: Immunohistochemistry of articular cartilage in DMM mice; type: in vivo, mouse
Description: (§1) Mice (C57BL/6J) were purchased from The Jackson Laboratory. All mice were housed on a 12-hour light/dark cycle with unrestricted access to standard mouse food and water. The DMM model of injury induced OA was performed on mice at 12 weeks of age by opening the joint capsule and transecting the medial meniscotibial ligament in the right knee, destabilizing the medial meniscus(48). A sham operation was performed on the left knee of each mouse by observing the medial meniscotibial ligament but not transecting it. Mice were administered carprofen 5 mg/kg (Zoetis; 1041283) subcutaneously 30 minutes prior to surgery, immediately post-surgery, and 24 hours post-surgery to minimize pain.
(§2) Treatments were initiated either 1 day after DMM surgery once a week for 8 weeks, or 1 month after DMM surgery twice a week for 4 weeks. Mice were sacrificed at 20 weeks of age (2 months after surgery). To understand the level of articular cartilage damage 1 month after DMM surgery, a cohort of mice was sacrificed at 16 weeks old (FIG. 4).
(§3) Seven micrometer-thick representative sections were chosen for immunohistochemistry, using a standard protocol (35). Tissue sections were deparaffinized, rehydrated, and washed in sodium borohydride (Sigma-Aldrich; 480886). Sections were then incubated with hyaluronidase (Sigma-Aldrich; H3505) and blocked with 5% serum in 1% PBST. Tissue sections were treated with primary antibodies to mouse ALK1 (R&D; AF770), Phospho-SMAD1/5 (Cell Signaling Technology; 9516), Phospho-SMAD2 (Cell Signaling Technology; 3108), MMP13 (Abcam; ab260040), and COL10 (Abcam; […]) and incubated overnight. Sections were then treated with a dilution of secondary antibody goat anti-rabbit IgG (H+L) Cross-Adsorbed Secondary Antibody, Alexa Flour 488 (Invitrogen; A-11008) or donkey anti-goat IgG (H+L) Cross-Adsorbed Secondary Antibody, Alexa Flour 488 (Invitrogen; A11055) for 4 hours. Finally, sections were incubated with 0.1 ug/mL of DAPI for 10 minutes before being mounted with Fluoro-Gel (Electron Microscopy Sciences; 17985-31). Images were taken with the Nikon Eclipse Ti fluorescent microscope.

pSMAD1/5 = assay: as above; type: in vivo, mouse
Description: as §1, §2, §3

Collagen-X (COL10) = assay: as above; type: in vivo, mouse
Description: as §1, §2, §3

[1] = system: Matrix Metalloproteinase-13 (MMP13); assay: as above; type: in vivo, mouse
Description: as §1, §2, §3

[2] = system: BMP-9-induced BMP reporter activity by ALK5-deficient ATDC5 cells; assay: BMP-9-induced BMP signal luciferase reporter in ALK5-deficient chondrocytic cells; type: cell-based, mouse; conditions: in the presence of 2 ng/mL of rhBMP-9; read-out: median effective concentration (EC50) to block BMP activity in vitro
Source text: Ligands that bind to ALK1 at physiological concentrations are BMP9 and BMP10 (Chen et al, PNAS 2013). […] ActRIIB has 300-fold higher affinity for BMP9 than does ActRIIA (Townson et. al., J Biol Chem. 2012 Aug. 10; 287(33):27313-2). The formation of ALK1-ActRIIB complexes is associated with the elevation of levels of pSmad1/5-mediated BMP signaling in cartilage (Wang et al., PNAS 2009)[4]. […] Furthermore, since loss of ALK5 causes OA and ALK5 antagonizes ALK1, these above results provide evidence that blocking ALK1 signaling may prevent OA development.
As described herein, the ALK1 receptor normally binds to ALK5 and/or ActRIIA in healthy chondrocytes, but in OA conditions ALK5 expression levels decline in chondrocytes and ALK1 tends to complex with ActRIIB; this ALK1/ActRIIB complex has high affinity for BMP9 and BMP10. […] BMP signaling output is monitored by a BMP signal luciferase reporter plasmid which contains a Smad1/5/8 response element in the promoter region. The biological efficacy of ALK1 antagonists is measured by their ability to inhibit BMP-9-induced BMP reporter activity by ALK5-deficient chondrocytic cells, such as ALK5-deficient ATDC5 cells. […]

[3] = delayed administration (1 month after DMM surgery)
[4] = treatment immediately after DMM surgery, week 8
[5] = treated 1 month after DMM surgery
[6] = treatment immediately after DMM surgery, week 8, listed as BMP-KI

## COc1cc(-c2cc(-c3ccc(N4CCNCC4)cc3)cnc2C)cc(OC)c1OC [LDN-214117]
pSMAD2/3; [3]
  percent cells positive for pSMAD2/3: not rescued
pSMAD2/3; [4]
  pSMAD2/3 expression in articular cartilage: not restored to normal levels
pSMAD1/5; [3]
  percentage of cells positive for pSMAD1/5: reduced
pSMAD1/5; [4]
  pSMAD1/5 expression in articular cartilage: reduced to normal levels
Collagen-X (COL10); [5]
  COL10 levels (percentage of cells expressing): significantly decreased
Collagen-X (COL10); [6]
  COL10 levels (percent of cells expressing): significantly decreases levels of expression; also recorded: visibly reduced
[1]; [5]
  MMP13 levels (percentage of cells expressing): attenuated to those of healthy sham control AC
[1]; [6]
  MMP13 levels (percent of cells expressing): significantly decreases levels of expression; also recorded: visibly reduced
[2]
  EC50: 40 nM
